Experimental data published in patent US20250034171A1, “IMIDAZOPYRIDINE AMIDES AND RELATED COMPOUNDS FOR USE IN THE TREATMENT OF BACTERIAL INFECTIONS” (priority 2021, published 2025).
In brackets after ≈: the same amount, converted by molar mass.

Tests used:
[1] = Metabolic stability in liver microsomes (intrinsic clearance); assay type: in vitro ADME; details: mouse, microsomes; for half-life at 1 µM: pH 7.4, Metabolic Stability Half life (mouse, min.); for microsomal CLint at 1 µM: pH 7.4, mouse liver microsomes, read-out: Metabolic Stability (liver microsome intrinsic clearance) Clearance (mouse, μl/min./mg protein)
Outline: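 Parent-compound loss, followed by LC-MS/MS peak area versus t=0, was tracked over 0, 5, 10, 20, 40 and 60 min in NADPH-initiated (1 mM) microsomal incubations: 0.5 mg/ml protein, pH 7.4 phosphate, 1 mM MgCl2, 37° C, substrate typically 1 μM. Half-life from regression gave intrinsic clearance per mg protein.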

[2] = HTChem stab assay (chemical stability in buffer pH2, pH4 and pH7 vs DMSO reference); assay type: physicochemical; details: 72 h, 50 µM; for Chemical stability data, Buffer pH2: pH 2; for Chemical stability data, Buffer pH4: pH 4; for Chemical stability data, Buffer pH7: pH 7
Outline: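 Compound from 10 mM DMSO stock shaken 72 h at room temperature in Buffer/DMSO (2:1) at pH2 (0.1N HCl), pH4 or pH7 (phosphate), alongside a DMSO control. Samples analysed by LC/UV/MS against the DMSO reference; degradant peaks identified by MS and sample purity reported.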

[3] = test system: Salmonella typhimurium Ames II Mixed Strains (TA7001-TA7006) and TA98; test: Genotoxicity assay (AmesIIb mutagenicity test); assay type: cell-based; details: Salmonella typhimurium; note: key: an AmesIIb score of 1 shows no genotoxicity signals
Outline: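 Histidine-requiring strains were exposed to graded compound concentrations, both without and with a mammalian metabolic activation system. Base substitutions were detected with a mixture of TA7001–TA7006 and frameshifts with TA98. Reversion to histidine independence was scored by growth in histidine-lacking medium.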

[4] = test system: Mycobacterium tuberculosis strain H37Rv; test: Test 2: MIC determination against M. tuberculosis, resazurin fluorescence; assay type: cell-based; details: Mycobacterium tuberculosis, H37RV, Test 2, M. tuberculosis H37Rv; for MIC90: read-out: Bacterial activity MIC90; for IC50: read-out: Bacterial activity pMIC50 (converted)
M. tuberculosis = details: cited from earlier work
[5] = test system: M. tuberculosis H37Rv inside macrophages; details: strain M. tuberculosis H37Rv; cited from earlier work

SMILES	half-life at 1 µM [1] [min]	microsomal CLint at 1 µM [1] [µL/min/mg]	Chemical stability data, Vehicle DMSO [2] [%]	Chemical stability data, Buffer pH2 [2] [%]	Chemical stability data, Buffer pH4 [2] [%]	Chemical stability data, Buffer pH7 [2] [%]	GeneTox AmesIIb Score [3]	MIC90 [4] [µM]	IC50 [4] [pM]	activity against MDR tuberculosis (M. tuberculosis; MDR tuberculosis)	activity against replicating and non-replicating bacteria (M. tuberculosis; replicating and non-replicating bacteria)	MIC50 [5] [nM]
CCc1nc2ncc(C)cn2c1C(=O)NCc1ccc(-c2nc3n(n2)CCCC3)cc1 [Compound 31ab]	> 180	< 7.7	100	100	100	100	1	0.052 (≈ 0.0216 µg/mL)	16000			
CCc1nc2nc(C)ccn2c1C(=O)NCc1ccc(-c2cn3c(n2)CC(C(F)(F)F)CC3)cc1 (stereo not drawn) [Compound 34ab]	> 180	< 7.7	94	94	95	93	1	0.387 (≈ 0.187 µg/mL)	94600			
CCc1nc2nc(F)ccn2c1C(=O)NCc1ccc(-c2cn3c(n2)CC(C)CC3)cc1 (stereo not drawn) [Compound 35ab]	29.9	46.4	100	100	99	98	1	0.041 (≈ 0.0177 µg/mL)	13400			
CCc1nc2ccc(Cl)cn2c1C(=O)NCc1ccc(N2CCC(c3ccc(OC(F)(F)F)cc3)CC2)cc1 [Compound Q203]										activity against MDR tuberculosis	highly active	0.28 (≈ 0.000156 µg/mL)
